US20080275134A1, “Methods for Treatment of Retinal Degenerative Disease” (University of Washington, priority 2005, published 2008)

Columns and labels:
[1] = tested on: regeneration of vision chromophore (11-cis-retinal); assay: regeneration of 11-cis-retinal in mouse eyes after gavage and light bleach, HPLC retinoid analysis; assay type: in vivo
Description: Mice were gavaged with all-trains-Ret-NH2, exposed to intense light for 20 min, and then allowed to recover in the dark for 5 hours. The total amount of different forms of retinoids in all experiments was unchanged. […] For this experiment mice were treated with both 9-cis-retinol and all-trans-Ret-NH2, and bleached after 24 hours, and were allowed to recover for 5 hours in the dark. The presence of 9-cis-retinal was confirmed in treated animals (see peaks 4 and 4′ in FIG. 4A bottom panel, corresponding to syn- and anti-9-cis-retinal oximes, respectively). 11-cis-Retinal was not reduced and/or esterified after treatment with Ret-NH2. […] This supports the idea that Ret-NH2 is a specific inhibitor of the isomerization reaction.
A. Chromatographic separation of nonpolar retinoids from WT mouse eyes. Mice were gavaged with all-trans-Ret-NH2 24 hours prior to bleaching for 20 min at 150 cd·m^−2 W in the Ganzfeld chamber. Regeneration of 11-cis-retinal was allowed for 24 hours in the dark, and retinoids were extracted from the eye and separated by normal phase HPLC as described in Materials and Methods. The peaks were identified based on elution time and absorption spectra correspond to the following retinoids: 1, all-trans-retinyl esters; 2,2′, syn- and anti-11-cis-retinal oximes; 3, syn-all-trans-retinal oxime; 4,4′, syn- and anti-9-cis-retinal oximes; 5, all-trans-retinol. B. Changes of 11-cis-retinal oxime levels at increasing doses of all-trans-Ret-NH2 during 5 hours or 24 hours of dark adaptation. Square indicates the level of 11-cis-retinal oximes that was present in mice gavaged with vegetable oil without retinoids just after bleaching, and arrow indicates the increase of visual chromophore during 5 hours of dark adaptation. Triangles correspond to the level of 11-cis-retinal found in the mice gavaged with 50 mg/kg of 13-cis-RA. C and D. Single flash ERG responses of increasing intensity for all-trans-Ret-NH2 treated mice and control mice. Serial responses to increasing flash stimuli were obtained for all-trans-Ret-NH2 treated and control mice for selected intensities (C) and plotted as a function of a-wave and b-wave versus varying light intensities under dark-adapted conditions (D) before bleach and at 5 hours and 24 hours after bleach. The dark-adapted mice were bleached with intense constant illumination (150 cd·m^−2) for 20 min. […] SE bars are shown.
Chromatographic separation of nonpolar retinoids from WT mouse eyes. Mice were gavaged with 100 mg/kg of all-trans-Ret-NH2 24 hours prior to bleaching. Mice were next exposed to 500 cd m^−2 for 48 min bleaching in the Ganzfeld chamber. Regeneration of 11-cis-retinal was allowed for 24 hours in the dark, and retinoids were extracted from the eye and separated by normal phase HPLC as described in Materials and Methods. The peaks identified based on elution time and absorption spectra correspond to the following retinoids: 1, all-trans-retinyl esters; 2,2′, syn- and anti-1-cis-retinal oximes; 3,3′ syn- and anti-all-trans-retinal oximes; 4, all-trans-retinol.
Mice were gavaged with the solution of inhibitor in vegetable oil (control—non-treated, RPN—retinylpalmitamide, RAN—retinylacetamide, Ret—NH2-all-trans-retinylamine), kept in dark for 16 hours, then light stimulated and kept in dark for additional 5 hours before their eyes were analyzed.
Mouse retinoid extraction and analysis—Retinoid analysis was performed under dim red light as described previously (Maeda et al., J. Neurochem 85:944-956, 2003; Van Hooser et al., J Biol Chem 277:19173-82, 2002). Mice were gavaged with retinoids as described previously (Van Hooser et al., J Biol Chem 277:19173-82, 2002).

[2] = molecular target: T1, isomerase (Bos taurus, UniProt Q28175); assay: isomerase reaction: 11-cis-retinol production by RPE microsomes from all-trans-retinol; assay type: biochemical, bovine
T1 construct: Purified RPE microsomes were the source of the enzymes; from tissue; host or cells: bovine retinal pigment epithelium microsomes
T1 sequence (Q28175 2-533 limits assumed): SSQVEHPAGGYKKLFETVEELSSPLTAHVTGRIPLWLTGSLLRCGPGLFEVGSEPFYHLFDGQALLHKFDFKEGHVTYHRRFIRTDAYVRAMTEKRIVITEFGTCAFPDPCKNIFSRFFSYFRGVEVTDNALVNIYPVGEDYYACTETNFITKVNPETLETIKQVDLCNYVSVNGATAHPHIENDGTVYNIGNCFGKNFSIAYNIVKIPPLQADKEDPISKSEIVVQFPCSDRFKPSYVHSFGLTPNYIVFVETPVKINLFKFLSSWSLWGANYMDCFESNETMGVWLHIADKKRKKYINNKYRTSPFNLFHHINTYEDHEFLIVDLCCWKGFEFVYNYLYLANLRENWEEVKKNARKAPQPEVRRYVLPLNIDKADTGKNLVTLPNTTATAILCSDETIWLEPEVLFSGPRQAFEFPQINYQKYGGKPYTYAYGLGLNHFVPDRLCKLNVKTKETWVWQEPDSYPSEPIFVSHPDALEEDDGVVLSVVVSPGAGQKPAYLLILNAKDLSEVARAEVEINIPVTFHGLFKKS
Description: To test if 11-cis-retinylamine (11-cis Ret-NH2) affects isomerization and esterification, an in vitro assay was employed. In this assay both of the all-trans-retinyl esters formed in the reaction catalyzed by LRAT and 11-cis-retinol production by isomerase were measured (6). Purified RPE microsomes were the source of the enzymes, and all-trans-retinol was the substrate. […] Inhibition of isomerization by Ret-NH2 is not due to binding of CRALBP or competition with 11-cis-retinol for binding to CRALBP. […] An increased concentration of all-trans-retinol lowered the level of inhibition, as illustrated in FIG. 2B. […] Dixon's and Lineweaver-Burk plots in the standard assay conditions yielded Ki=0.1 μM for Ret-NH2 when all-trans-retinol (KM=0.3 μM) was assumed to be a substrate. […] This estimated value reflects the very potent nature of the inhibition by 11-cis-Ret-NH2.
Materials—Fresh bovine eyes were obtained from a local slaughterhouse (Schenk Packing Co., Inc., Stanwood, Wash.). Preparation of bovine RPE microsomes was performed according to previously described methods (Stecher et al., J Biol Chem 274:8577-85, 1999). All chemicals were purchased from Sigma-Aldrich (St. Louis, Mo.). 11-cis-Retinal was obtained from Dr. Rosalie Crouch (Charleston, S.C.).
Reaction conditions for isomerase and LRAT reaction—The isomerase reaction was performed essentially as described previously (Stecher et al., J Biol Chem 274:8577-85, 1999). The reaction was carried out in 10 mM BTP buffer, pH 7.5, 1% BSA, containing 1 mM ATP and 6 μM apo-CRALBP. To investigate inhibition properties of Ret-NH2 and its derivatives, RPE microsomes were preincubated for 5 min in 37° C. with the indicated compound in 10 mM BTP buffer, pH 7.5, 1% BSA, 1 mM ATP prior to addition of apo-CRALBP and all-trans-retinol. Ret-NH2 and its derivatives were delivered to the reaction mixture in 1 μl of DMF, and the same volume of DMF was added to the control reaction. Each experiment was performed three times in duplicate. The average values were used and the standard deviations were calculated.

Row | Structure (SMILES) | IC50 of chromophore recovery, 5 hours recovery ([1]; 20 min high-intensity light, 5 hours dark) [mg/kg] | IC50 of chromophore recovery, 24 hours recovery ([1]; 20 min high-intensity light, 24 hours dark) [mg/kg] | recovery of chromophore after all 11-cis-retinal is photoisomerized ([1]; longer light treatment (100 mg/kg, 500 cd m^-2 for 48 min, 24 hours dark)) | Ki ([2]; Dixon's and Lineweaver-Burk plots, standard assay conditions, all-trans-retinol assumed to be substrate, estimated value) [nM] | mode of isomerase inhibition ([2]; initial rate vs concentrations of all-trans-retinol and 11-cis-Ret-NH2) | change in amount of Ret-NH2 between start and end of the assay (HPLC) ([2]; time course of the in vitro isomerase assay) [%] | retinoid levels in the eye without light exposure ([1]; 50 mg/kg, not exposed to light, after 30 hours) | 11-cis-retinal in the eye after bleach and dark recovery ([1]; gavage, intense light 20 min, 5 hours in the dark) | levels of all-trans-retinyl esters in the eye ([1]; gavage, intense light 20 min, 5 hours in the dark, vs controls) | uptake, transport or oxidation of 9-cis-retinol ([1]; mice given 9-cis-retinol and all-trans-Ret-NH2, bleached after 24 hours, 5 hours dark) | IC50 ([2]; RPE microsomes, all-trans-retinol substrate, read-out: IC50, inhibition of 11-cis-retinol production) [nM]
1 | CC1=C(/C=C/C(C)=C/C=C/C(C)=C/CN)C(C)(C)CCC1 [Ret-NH2, Retinylamine] | 2 | 24 | completely blocks recovery of chromophore | 100 | reversible and can be competed out by all-trans-retinol | ≤ 5 |  |  |  |  | 
2 | CC1=C(/C=C/C(C)=C/C=C/C(C)=C/CN)C(C)(C)CCC1 [all-trans-Ret-NH2, all-trans-retinylamine] |  |  |  |  |  |  | normal levels of retinoids | only a residual amount | elevated | did not affect | 500
